From patent publication US20110098257A1, “DERIVATIVES OF 4- OR 5-AMINOSALICYLIC ACID” (ANTIBE THERAPEUTICS INC., priority 2005, published 2011)
Structures can show the parent of a compound that is named as a salt.

How the values were obtained:
[1] = system: visceral pain in response to colorectal distension; assay: Rat model of visceral pain perception (colorectal distension, AWR score); format: in vivo, Rats (male, Wistar); settings: for pain perception: equimolar doses: mesalamine 50, Compound XXXV 130, ADT-OH 80, Compound XXVII 100, 4-HTB 50 mg/kg; for pain perception / pain perception score: vs vehicle-treated group; for pain perception score after glibenclamide pretreatment / pain perception score: 0.8 mL colorectal distention, 100 mg/kg, FIG. 17; for pain perception score after glibenclamide pretreatment: glibenclamide 10 mg/kg i.p. 30 min before
Method: A rat model of visceral pain perception, a pre-clinical model of irritable bowel syndrome, was used in the following example. Rats (male, Wistar, 200-250 g, obtained from Charles River, Monza, Italy), were housed in plastic cages and maintained under controlled conditions with 12-hours light/dark cycle with lights on at 7.00 AM. Tap water and standard laboratory chow were freely available. Before experiments, rats were individually trained by spending 2-3 hours per day in a plexiglass cage for 2-3 days. It allowed them to adjust to a movement-restriction environment. Food was withheld for 12 hours before colorectal distension (CRD) recording were performed. Experiments were performed in awake rats and were conducted in a blind manner in that the observer was not aware of the identity of drug administered to each animal.
In the testing day, rats were sedated with ether inhalation and a 2 cm long latex balloon was inserted intrarectally 2 cm from the anal verge and fixed at the base of the tail. The balloon was connected via a double-barreled cannula to a pressure transducer to continuously monitoring the rectal pressure by a computer (PowerLab PC, A.D. Instruments, Milford, Mass., USA) and to a syringe for inflation/deflation of the balloon. The rats were then housed in a small cage (20×8×8 cm) on an elevated Plexiglas™ platform and allowed to wake up and adapt for 1 hour. After recovery from sedation, animals underwent the CRD procedure and behavioral responses were tested. The night before the experiments, the balloons were inflated and left overnight so the latex stretched and the balloons became compliant.
CRD of 20 seconds, performed every 5 minutes, was applied in increment of 0.4 ml starting from 0.4 ml up to 1.6 ml water. To achieve an accurate measurement of the colonic parameters and perception, the distensions were repeated twice for each intensity and data for each animal were averaged for analysis. Each animal underwent a double set of CRD. Twenty minutes after the first sequence of CRD (0.4 mL-1.6 ml water), drugs were administered intraperitoneally (i.p.) and a second set of CRD was performed. Behavioral responses during the first and the second set of CRD were assessed and compared.
Behavioral response to CRD was assessed by measuring the abdominal withdrawal reflex (AWR) using a semiquantitative score (1).
The effects of mesalamine and Compound XXXV on colonic compliance and sensitivity were determined using a total of 8 fasting rats. To investigate whether the administration of mesalamine and Compound XXXV could revert pain induced by CRD, after the first sequence of CRD, […], after which a second set of CRD was repeated.
To determine the effect of mesalamine or Compound XXXV on colonic smooth muscle, the compliance of the colo-rectum during CRD was obtained from intracolo-rectal volume and pressure and expressed as mL/mmHg.
All data are presented as the mean±SEM, with sample sizes of 4 rats/group; statistical comparison of paired data was performed by the Wilcoxon signed rank test. An associated probability (p value) of less that 5% was considered significant.
A rat model of visceral pain perception as described above was used to compare pain perception scores for both Compound XXXV and Compound XXVII with or without glibenclamide, an inhibitor of ATP-sensitive K^+ (KATP) channels.

[2] = system: PE (1 μM) precontracted rings of thoracic aorta; assay: Vasorelaxant effect on PE precontracted thoracic aorta rings; set-up: species or system CD-1 mice; settings: cumulative concentration-response 10 nM-3 mM, endothelium present, vs vehicle; FIG. 22
Method: CD-1 mice were sacrificed and thoracic aorta was rapidly dissected and cleaned from fat and connective tissue. […] Changes in isometric tension were recorded with PowerLab™ data acquisition system (Ugo Basile, Italy). […] Rings were initially stretched until a resting tension of 1.5 g was reached and allowed to equilibrate for at least 40 minutes during which tension was adjusted, when necessary, to 1.5 g and bathing solution was periodically changed.
Vehicle represents buffer but no compound. Curves to tested compounds were constructed in presence of endothelium.
Data obtained are shown in FIG. 22 and are expressed as mean±SEM. The level of statistical significance was determined by 2-way analysis of variance (ANOVA) followed by Bonferroni's test for multiple comparison, using the GraphPad™ software.

[3] = system: leukocyte adherence in mesenteric post-capillary venules; assay: Leukocyte adherence to the vascular endothelium in vivo (intravital microscopy, aspirin-induced); set-up: species or system Rats
Method: Leukocyte adherence was studied using intravital microscopy, as described in detail previously (Wallace et al., (1993) Am. J. Physiol. 265: 993-998, incorporated hereto by reference). Rats were anesthetized with pentobarbital sodium (60 mg/kg i.p.) and cautery incisions were made along the abdominal region. A tracheotomy was performed to facilitate breathing. The rats were placed in a supine position, and a segment of the mesentery was exteriorized through the abdominal incision. The mesentery was carefully placed over an optically clear viewing pedestal that allowed for trans-illumination of a 2-cm^2 segment of tissue. All exposed tissue was covered with saline-soaked gauze to minimize dehydration. The temperature of the pedestal was kept at 37° C. and the mesentery was superfused with warmed bicarbonate-buffered saline (pH 7.4). An intravital microscope (Nikon L25/0.35) and a ×10 eyepiece were used to observe the mesenteric microcirculation. Post-capillary venules with diameters ranging from 20 to 40 μm were selected for the study. A video camera mounted on the microscope (Panasonic™ digital 5000) projected the image onto a monitor, and the images were recorded for playback analysis using a videocassette recorder. Images of the mesenteric microcirculation were recorded 5 minutes prior to aspirin administration (baseline), at the time of aspirin administration (time 0-5) and every 15 minutes for 60 minutes. Leukocyte adherence was blindly quantified from videotaped images of the vessels made over 5-min periods as the number of leukocytes that remained stationary along the vessel wall for 30 s or more (expressed per 100 μm venule length). Groups of rats (at least 5 in each) were pretreated with Compound XXXV (130 mg/kg), Compound XXVII (100 mg/kg), mesalamine (50 mg/kg), or vehicle 60 min prior to aspirin (or vehicle) administration. These drugs were given intragastrically. In some experiments, rats were treated with glibenclamide (10 mg/kg i.p.) or vehicle 30 min prior to administration of these compounds.

[4] = after patients have taken the usual doses; Dig. Dis. Sci. 1989; 34: 573-578; cited from earlier work
[5] = system: mice having TNBS-induced colitis; assay: TNBS-induced colitis in mice (disease activity score, colonic MPO activity); format: in vivo, Balb/c mice
Method: A standard experimental animal model of colitis induced by intracolonic administration of 2,4,6-trinitrobenzene sulfonic acid (TNBS) to mice is used in the following example. A detailed description of this model has been published (Santucci et al. (2003) Gastroenterology 124:1381-94) and is incorporated herein by reference. Briefly, 6-8 week old Balb/c mice were given TNBS intracolonically at a dose of 1.5 mg in 0.1 mL of 30% ethanol. The mice were randomized to the various treatment groups (n=6 per group). Beginning one hour later and continuing every 12 h for 5 days, the mice were treated orally with vehicle (1% carboxymethylcellulose (CMC)), 5-ASA (mesalamine) (25, 50 or 75 mg/kg) or with equimolar doses of 2-hydroxy-5-amino-benzoic acid 4-(thioxo-5H-[1,2]dithiol-3-yl)-phenyl ester hydrochloride (Compound XXXV) (130 mg/kg), or with […] (100 mg/kg), 50% (66 mg/kg) and 25% (33 mg/kg) of that dose. The mice were evaluated (blindly) on the final day of the study for the presence of diarrhea and fecal occult blood, and their body weights were measured. […] After sacrifice, a sample of the colon was excised for measurement of myeloperoxidase (MPO) activity, as a marker of granulocyte infiltration. All results were compared to those obtained with healthy mice as well.
FIGS. 3 and 4 show the Disease Activity Index and MPO activity, respectively, using the same experimental animal model of colitis as described above, in which Compound XXXV (130 mg/kg) was compared to equimolar doses of its two constituents, mesalamine (50 mg/kg) and 5-p-hydroxyphenyl-[…] (ADT-OH) (80 mg/kg), and a mixture of mesalamine (50 mg/kg) and ADT-OH (80 mg/kg). *p<0.05 versus the vehicle-treated group. Each group consisted of at least 5 rats.
FIGS. 6 and 7 show the Disease Activity Index and MPO, respectively, using the same experimental animal model of colitis as described above, in which Compound XXVII (100 mg/kg) was compared to equimolar doses of its two constituents, mesalamine (50 mg/kg) and 4-hydroxythiobenzamide (4-HTB) (50 mg/kg), mesalamine alone (50 mg/kg) and 4-HTB alone (50 mg/kg). *p<0.05 versus the vehicle-treated group. Each group consisted of at least 5 rats.
The same model was used as described above. In this example, the effects of mesalamine (50 mg/kg) were compared to those of equimolar doses of Compound XXXV. In addition to measuring the severity of colitis by measuring disease activity score and MPO activity, tissues were processed for measurement of a number of genes for inflammatory cytokines and other mediators.

## Oc1ccc(-c2cc(=S)ss2)cc1 [ADT-OH, 5-p-hydroxyphenyl-1,2-dithione-3-thione, reference compound]
[1]
  pain perception: Only Compound XXXV and Compound XXVII significantly reduced pain perception

## NC(=S)c1ccc(O)cc1 [Compound 4-HTB, 4-hydroxythiobenzamide, reference compound]
[1]
  pain perception: Only Compound XXXV and Compound XXVII significantly reduced pain perception
[2]
  vasorelaxant effect (% relaxation): significant vasorelaxant effects, which were concentration dependent

## Nc1ccc(O)c(C(=O)O)c1 [mesalamine, 5-aminosalicylic acid]
[1]
  pain perception score after glibenclamide pretreatment: did not affect the pain perception
  pain perception score: had no significant effect
  pain perception: Only Compound XXXV and Compound XXVII significantly reduced pain perception
[3]; glibenclamide 10 mg/kg i.p. 30 min prior to the compound, compound plus aspirin, FIG. 19
  aspirin-induced leukocyte adherence with glibenclamide pretreatment: no effect
[4]
  mesalamine concentration in the colonic lumen: up to 5 mM

## CC(=O)Oc1ccccc1C(=O)O [Aspirin, aspirin, reference compound]
[3]; vs baseline period / vehicle+vehicle group, FIG. 19
  leukocyte adherence after intragastric aspirin: markedly increased leukocyte adherence

## Nc1ccc(O)c(C(=O)Oc2ccc(-c3cc(=S)ss3)cc2)c1 (as salt: hydrochloride) [Compound XXXV, 5-Amino-2-hydroxy-benzoic acid 4-(5-thioxo-5H-[1,2]dithiol-3-yl)-phenyl ester]
other
  melting point: 93 to 95 °C

## COc1ccc(Cl)cc1C(=O)NCCc1ccc(S(=O)(=O)NC(=O)NC2CCCCC2)cc1 [Glibenclamide, glibenclamide, reference compound]
[3]; glibenclamide 10 mg/kg i.p., no aspirin, FIG. 19
  leukocyte adherence, glibenclamide alone: did not affect leukocyte adherence
[3]; pretreatment: Compound XXXV 130 mg/kg or mesalamine 50 mg/kg intragastrically 60 min prior to aspirin, glibenclamide 10 mg/kg i.p., FIG. 19
  aspirin-induced increase in leukocyte adherence: did not affect the magnitude of aspirin-induced leukocyte adherence

## NC(=S)c1ccc(OC(=O)c2cc(N)ccc2O)cc1 [Compound XXVII, 5-Amino-2-hydroxy-benzoic acid 4-thiocarbamoyl-phenyl ester]
[5]; Compound XXVII 100 mg/kg vs mesalamine 50 mg/kg, 4-HTB 50 mg/kg and their mixture, FIG. 5
  Disease Activity Index: almost three times as effective as either mesalamine alone, 4-HTB alone or a mixture of mesalamine and 4-HTB
[5]; Compound XXVII 100 mg/kg, FIG. 6
  MPO activity (granulocyte infiltration): significantly reduced inflammation
[1]
  pain perception score after glibenclamide pretreatment: reversed by pretreatment with glibenclamide
  pain perception score: significantly reduced the pain perception
  pain perception: significantly reduced pain perception
[3]; minutes 60-65, Compound XXXV 130 mg/kg, Compound XXVII 100 mg/kg, FIG. 20
  aspirin-induced leukocyte adherence, final time period: suppress aspirin-induced leukocyte adherence
[3]; minutes 60-65, glibenclamide 10 mg/kg i.p., FIG. 20
  aspirin-induced leukocyte adherence, final time period, with glibenclamide pretreatment: glibenclamide pretreatment to reverse this inhibitor effect
other
  melting point: 193 to 195 °C

## CC(=N)S [thioacetamide]
[2]
  vasorelaxant effect (% relaxation): significant vasorelaxant effects, which were concentration dependent
